Legend:
[1] = system: cell cycle genes in TNBC tumors; assay: Real-time PCR of cell cycle genes in PDX tumors; assay type: in vivo, mouse; settings: tumor tissue
Method: FIG. 13 illustrates an embodiment of the present invention and illustrates the effects of SIM-1 and SIM-2 on the growth arrest of TNBC tumors. […] The higher magnification images were given below. (B) Area of 50 randomly selected cells (10 different images from n=5 mice/group) from three different groups were measured using polygon tool of ImageJ software and then the scatter histogram analysis was performed using GraphPad Prism 10 statistical software package. The significance of mean between groups (***p<0.001 versus control) was calculated by one-way ANOVA analysis (effector: treatment). (C) IHC staining of cell growth marker Ki-67 in vehicle-, SIM-1-, and SIM-2-treated tumors represents the cell growth property of tumor cells. […] Both hematoxylin-ir nuclei (total cells) and Ki-67-ir cells were counted in n=15 images per group, converted in percent scale, and then plotted as scatter histogram. ****p<0.0001 vs. control as derived by one-way ANOVA. (E) IHC staining of cell proliferation marker PCNA in three different groups. (F) Scatter histogram analysis of […] counted from n=15 images per group and then plotted as percent scale. […] (G) A gene array of 84 genes in a validated human breast cancer gene array (RT^2 Profiler™ PCR array; Cat #PAHS-131ZA; Qiagen) was conducted in cDNA samples extracted from TNBC tumors of vehicle, SIM-1- and SIM-2-treated (n=3) groups. The resultant gene expressions were converted in log scale and then compared with the vehicle in (G) SIM-1 and (H) SIM-2 treated groups as shown in scatter plots. […] (I) Validation of gene expressions of CCND1, CCND2, CCNE1, CDK2 genes were performed by real-time PCR analysis. (J) Upregulations of CDKN1A, and CDKN2A in SIM-1- and SIM-2-treated groups were validated by real-time PCR analyses. were Significance of mean calculated by one-way ANOVA resulted […] versus respective vehicle-groups. The results are confirmed after three different experiments.
To assess the histopathological changes in tumor parenchyma, H&E staining of tumor tissue was performed in three different groups (FIG. 13A). The hematoxylin-stained cells appeared with enlarged and densely colored nuclei characteristic of growing and mitotic tumor cells. […] The result was further corroborated with the quantitative analyses of cell size (FIG. 13B). […] To further confirm, we performed a gene array with a validated RNA array kit (Qiagen) of genes that are involved in the growth and proliferation of breast cancer cells. Relative expressions of different genes were summarized by heatmap clusterogram analyses (FIG. 14D).

RANTES = RANTES real-time PCR and ELISA in MDA-MB-468 cells; assay type: cell-based, human; settings: 20 nM; for gene expression of RANTES (real-time PCR): 5 hrs post-treatment; for protein expression of RANTES (ELISA): 48 hrs post treatment
Method: (§1) FIG. 10 illustrates an embodiment of the present invention and illustrates SIM-1 and SIM-2 inhibit expressions of IL6, RANTES, and other STAT3-dependent tumor promoting genes and proteins. (A) A gene array of STAT3 dependent 66 genes (listed in Table 1) was performed in mRNA samples of MDA-MB-468 cells. Realtime PCR plate coated with 66 primer sets of STAT3-dependent genes was run for four conditions including control, EGF (25 ng/mL), EGF+SIM-1 (10 nM) and EGF+SIM-2 (10 nM). The resultant Ct value was normalized with four different housekeeping genes, and then summarized with a heatmap analyses drawn in Morpheus server of Broad Institute. […] (C) The cloning of STAT3 response element of IL6 promoter upstream of GFP reporter was performed by GeneCopoea genome editing service (Rockville, MD). The bit score map and sequence of consensus STAT3 response element or SEQ ID NO: 2 was shown below. EGFP reporter assay was performed in EGF-induced (20 ng/mL) MDA-MB-468 after treatments of increasing doses of (D) SIM-1 and (E) SIM-2 for 5 hrs. Briefly, MDA-MB-468 cells were transfected with the plasmid for 24 hrs using Lipofectamine transfection strategy followed by the treatment with EGF (20 ng/mL) alone and together with increasing doses SIM-1 and SIM-2 for additional 5 hrs. After that live cells were recorded at Ex:Em=485/535 nm wavelength for GFP activity. (F) The scrambled STAT3 response element in IL6 promoter or SEQ ID NO: 3 was also synthesized partnering with GeneCopoea. One-way ANOVA (treatment as effector) was adopted to test the significance between groups at **p<0.01, #p<0.005, and *p<0.05. (G) The GFP reporter activity was measured where the scrambled gene was cloned upstream of eGFP reporter. Results are mean±SD of three different experiments Ns=no significance. (H) Realtime PCR analyses of IL6 was performed in MDA-MB-468 cells maintained under control, EGF (25 ng/mL), EGF+SIM-1(20 nM), and EGF+SIM-2 (20 nM) conditions for 5 hrs. (I) ELISA analysis of IL6 was performed after 48 hrs in MDA-MB-468 cells kept under similar treatment conditions. (J) Realtime PCR (5 hrs post-treatment) and (K) ELISA analyses of RANTES (48 hrs post treatment) were performed under similar condition. Results are mean±SD of three different experiments. One-way ANOVA (treatment as effector) was adopted to test the significance between groups at ***p<0.001, **p<0.01, and *p<0.05.
(§2) ELISA assay. IL6 (BD OptEIA™; Cat #555220) and RANTES (Thermo; Cat #EHRNTS) ELISA was performed as per manufacturer's protocol. […]
(§3) Once the transcriptional regulation of STAT3-dependent genes was confirmed, the quantification of IL6 was performed. […]

IL6 = IL6 real-time PCR and ELISA in MDA-MB-468 cells; assay type: cell-based, human; settings: for gene expression of IL6 (real-time PCR): 20 nM, 5 hrs; for IL6 protein in supernatants (ELISA): EGF stimulation, 48 hrs
Method: as §1, §2, §3

Row | Compound | expression of CCND1, CCND2, CCNE1 and CDK2 (real-time PCR) [1] | expression of CDKN1A and CDKN2A (real-time PCR) [1] | gene expression of RANTES (real-time PCR) (RANTES) | protein expression of RANTES (ELISA) (RANTES) | gene expression of IL6 (real-time PCR) (IL6) | IL6 protein in supernatants (ELISA) (IL6)
1 | CCOC(=O)c1c(NC(C)=O)sc2c(Cl)c(/C=N/O)ccc12 [SIM-2, ethyl 2-acetamido-7-chloro-6-(hydroxyiminomethyl)-1-benzothiophene-3-carboxylate] | strongly suppressed | significantly induced | significantly downregulated | significantly downregulated | strongly inhibited | suppression of IL6
2 | O=C(O)CCC(=O)NCc1csc2ccc(Cl)cc12 [SIM-1, 4-[(5-chloro-1-benzothiophen-3-yl)methylamino]-4-oxobutanoic acid] | strongly suppressed | significantly induced | significantly downregulated | significantly downregulated | strongly inhibited | suppression of IL6
